Data set [1] has as its system NL4–3 Env pseudo-typed HIV-1 virus. The data set can be described thus: ELISA-based quantification of capsid. Format: cell-based. The note with it: 10 μM compound. On the technique in general: An ELISA detects its analyte on a solid surface through an enzyme-linked reagent.
Data set [2] in a line: In vivo pharmacokinetics in rats. Conditions: rat, iv 2 mg/kg.
A further data set in a line: in vitro. Conditions: human, microsomes.
The subject of the next data set is Kunming mice. Briefly: Single-dose acute toxicity in mice. The note with it: intragastric.
A further data set has as its target recombinant HIV-1 RT (Human immunodeficiency virus type 1 group M subtype B, UniProt P03366). The data set can be described thus: Recombinant HIV-1 RT inhibitory assay. Format: biochemical. The note with it: at 0.2 μM.

“Also recorded” adds a separate entry of the source.

Turning to `COc1ccc(N(C)C(=O)[C@H](Cc2ccccc2)NC(=O)CNS(=O)(=O)c2cccc(F)c2)cc1` [Compound 6k, (S)-2-(2-((3-fluorophenyl)sulfonamido)acetamido)-N-(4-methoxyphenyl)-N-methyl-3-phenylpropanamide], the “increase of CA/p24 content of the produced virus compared to the DMSO control” value (“increase” below) in data set [1] is reported as 0–20%.
For the compound `COc1ccc(N(C)C(=O)[C@H](Cc2ccccc2)NC(=O)CN2C(=O)Nc3ccccc3S2(=O)=O)cc1` [Compound 8a, (S)-2-(2-(1,1-dioxido-3-oxo-3,4-dihydro-2H-benzo[e][1,2,4]thiadiazin-2-yl)acetamido)-N-(4-methoxyphenyl)-N-methyl-3-phenylpropanamide], the “increase” value in data set [1] is listed as 0–20%.
Turning to `COc1ccc(N(C)C(=O)[C@H](Cc2ccccc2)NC(=O)CN2CCN(S(=O)(=O)c3ccc(N)cc3)CC2=O)cc1` [Compound 11l, (S)-2-(2-(4-((4-aminophenyl)sulfonyl)-2-oxopiperazin-1-yl)acetamido)-N-(4-methoxyphenyl)-N-methyl-3-phenylpropanamide], the “increase” value in data set [1] is listed as 0–20%. In data set [2], the V came out at 5.7524 L/kg. The intrinsic metabolic clearance (CLint scaled) in the data set “in vitro” was 308 mL/min/kg. Further, in the data set with Kunming mice (1000 mg/kg), the “death after single dose” value is given as “No death was observed”. In the data set on Kunming mice (single dose 1000 mg/kg, one week), the “acute toxicity / tolerability” value is given as “no acute toxicity; also recorded: well-tolerated”. Further, the “RT activity as compared to the DMSO control” value at recombinant HIV-1 RT stood at 95±15%.
In the case of `O=C(O)Cc1ccccc1Nc1c(Cl)cccc1Cl` [Diclofenac], in the data set “in vitro”, the CLint scaled amounted to 84.3 mL/min/kg.
`Cc1[nH]c2ccccc2c1CC(=O)N[C@@H](Cc1ccccc1)C(=O)N(C)c1ccccc1` [PF-74, reference compound]: the “increase” value in data set [1] is on record as “around 40%”. The CLint scaled in the data set “in vitro” came out at 972 mL/min/kg.
In “in vitro”, `C[C@]12CC[C@H]3[C@@H](CCC4=CC(=O)CC[C@@]43C)[C@@H]1CC[C@@H]2O` [Testosteron^e, Testosterone] came in with a CLint scaled of 85.7 mL/min/kg. Further, the “CLint(mic)” value (HLM 0.5 mg protein/mL) turned out to be 95.2 µL/min/mg. The “Remaining (T=60min)” value (HLM 0.5 mg protein/mL, 60 min) was 6.1%. Further, for the setting “no cofactor (no NADPH), 60 min”, the “Remaining (NCF=60min)” value is recorded as 84.0%.

As usually defined, the CLint scaled is a measure of how fast metabolising enzymes remove a compound, apart from limits set by blood flow. Low readings indicate slow turnover, high ones rapid turnover.

These data come from article PMC8011991 (Journal of medicinal chemistry, 2020).
